# Measurements published in patent publication US6676932B2, “Ultraviolet absorbent, photostabilizer, ultraviolet ray-absorbing composition, photostabilized composition and external preparation for skin” (Shiseido Co., Ltd., priority 2001, dated 2004).
# What was measured:
# [1] = Drug stabilization effect blended with sequestering agent (Test Examples 372 to 391); format: physicochemical; set-up: key to Appearance (visual determination): ◯: no change; Δ: almost no change; x: change; conditions: drug Salicylic acid 0.1, photostabilizer blend amount 0.03, daylight exposure (80 MJ)
# In short: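 Compositions combining the pyridazine derivative with sequestering agents were exposed to daylight (80 MJ). Appearance was judged visually, and drug remaining ratio was measured by liquid chromatography before and after exposure.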
# skin [2] = assay: Test of skin irritation: continuous application test (Test Example 3 i); format: in vivo, human; conditions: 10 wt % ultraviolet absorbent, twice daily for 4 weeks
# Protocol: (§1) The same samples as in the Test Example 2 were used (at a 10 wt % amount of an ultraviolet absorbent).
# Continuous application test was carried out for 20 healthy subjects per one group. An appropriate amount of each of the samples was coated twice daily for 4 weeks. The effects were assessed according to the following assessment standards.
# Mean score was calculated for the determination of the effect on the basis of the following standards.
# (§2) ◯: mean score of more than 0 to less than 1.
# (§3) Δ: mean score of 1 or more to less than 2.
# (§4) x: mean score of 2 or more.
# [3] = Drug stabilization effect under daylight exposure (Test Examples 182 to 211); format: physicochemical; set-up: key to Appearance (visual determination): ◯: no change; Δ: almost no change; x: change; conditions: photostabilizer 0.05 wt %, daylight exposure (80 MJ); for Remaining ratio (%): liquid chromatography
# Protocol: For observation of the change of the appearance of each test sample (determination based on visual observation) and the measurement of the remaining ratio by liquid chromatography before and after daylight exposure (80 MJ), the test sample was prepared.
# sunburn = assay: Ultraviolet preventive effect, application test on beach in summer (Test Example 2); format: in vivo, human
# Protocol: An application test was carried out on beach in summer. Equal volumes of samples were individually coated on back halves of subjects. After exposure to direct daylight, the degree of sunburn was assessed according to the following assessment standards. Each group consists of 10 subjects.
# Prominently effective: none or almost no sunburn symptom was observed.
# Effective: light sunburn symptom was observed.
# Ineffective: strong sunburn symptom was observed.
# ⊚: prominently effective or effective for 80% or more of the subjects.
# ◯: prominently effective or effective for 50% or more to less than 80% of the subjects.
# Δ: prominently effective or effective for 30% or more to less than 50% of the subjects.
# x: prominently effective or effective for less than 30% of the subjects.
# The aqueous phase and the alcohol phase were separately prepared and then mixed together.
# Propylene glycol was added to and dissolved in ion exchange water. The resulting solution was retained at 70° C. under heating (aqueous phase). Other ingredients were mixed […]. The resulting mixture was melted under heating and retained at 70° C. (oil phase). The oil phase was added to the aqueous phase, for preliminary emulsification with a homomixer to homogeneity. Under thorough mixing, subsequently, the mixture was cooled to 30° C.
# skin [4] = assay: Test of skin irritation: 24-hour occlusion patch test (Test Example 3 ii); format: in vivo, human; conditions: 10 wt % ultraviolet absorbent
# Protocol: as §1
# 20 Healthy male and female volunteers per one group were carried out in a 24-hour occlusion patch test, using a fin chamber on forearm curves. Assessment was done on the basis of the following assessment standards.
# Mean score was determined for the assessment on the basis of the following standards.
# as §2, §3, §4
# [5] = Photostability test of aqueous solutions under daylight (Test Example 4); format: physicochemical; conditions: aqueous solution, daylight for 2 weeks (80 MJ)
# Protocol: Aqueous solutions of the pyridazine derivative of the invention were exposed to daylight for 2 weeks (at a daylight exposure of 80 MJ). Subsequently, the remaining ratio and the change of the appearance were examined to measure the ultraviolet spectra with a spectrophotometer (solvent: water; concentration of 10 ppm and optical path length of 1 cm). The area under ultraviolet spectra curve from 290 nm to 400 nm were determined by integration to compare the area with the area before daylight exposure.
# The remaining ratio and the change of the area under the ultraviolet spectrum were determined on the basis of the following standards.
# ⊚: 95% or more of those before daylight exposure.
# ◯: 90% or more to less than 95% of those before daylight exposure.
# Δ: 70% or more to less than 90% of those before daylight exposure.
# x: less than 70% of those before daylight exposure.
# [6] = Stability test in combination with inorganic powder-based ultraviolet shielding agent, sunscreen cream (Test Example 5); format: physicochemical; conditions: sunscreen cream with inorganic powders; ultraviolet absorbent 10.0 wt %; 50° C. for 2 months; visual observation
# Protocol: A sunscreen cream of the following formulation was prepared and stored at 50° C. for 2 months. Under visual observation of the color change, the stability of the inventive pyridazine derivative in combination with inorganic powder-based ultraviolet screening agents commonly in blend as external preparations for skin for the purpose of ultraviolet prevention was examined.
# After the ingredient 2 was added to the ingredient 1 to swell the ingredient 2, the ingredients 3 to 11 were mixed with the resulting mixture under heating, for sufficient dispersion and dissolution. While keeping the dispersion at 70° C., a solution of the mixture of the ingredients 12 to 15 was gradually added to the dispersion under thorough emulsification with a homomixer. The resulting mixture was cooled to 30° C. under sufficient stirring to prepare sunscreen creams.
# [7] = Dye stabilization effect under daylight exposure (Test Examples 6-91); format: physicochemical; set-up: key to Δ E: color difference ΔE in Lab vs. color before daylight exposure; key to Appearance (visual determination): ◯: no change; Δ: almost no change; x: change; conditions: photostabilizer 0.05 wt %, daylight exposure (80 MJ)
# In short: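 Test samples exposed to daylight to 80 MJ; appearance judged visually. Colour measured by spectrophotometer in Lab coordinates, with ΔE calculated relative to pre-exposure values (L1, a1, b1).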
# [8] = drug L-ascorbic acid 2-glucoside 2.0 wt %
# [9] = drug dibutylhydroxytoluene 0.01 wt %
# [10] = drug dl-α-tocopherol 2-L-ascorbic acid phosphate diester potassium salt 0.01 wt %
# [11] = dye Blue 1 (Brilliant Blue FCF) 0.0001 wt %
# [12] = dye Green 3 (Fast Green FCF) 0.001 wt %
# [13] = dye Red 227 (Acid Fuchsine D) 0.0001 wt %
# [14] = dye Yellow 5 (Sunset Yellow FCF) 0.001 wt %
# [15] = dyes Red 213 (Rhodamine B) 0.00001 + Blue 1 (Brilliant Blue FCF) 0.00001 wt %
# [16] = dyes Red 227 (Acid Fuchsine D) 0.0001 + Yellow 5 (Sunset Yellow FCF) 0.0001 wt %
# [17] = dyes Red 401 (Violanin R) 0.0001 + Blue 1 (Brilliant Blue FCF) 0.00001 wt %
compound,measurement,setting,value
"Oc1nncc(N2CCCCC2)c1N1CCCCC1 [4,5-Dipiperidino-3-hydroxypyridazine]",Appearance (visual determination),[1]; no sequestering agent,Δ
same,Appearance (visual determination),[1]; with ethylenediamine tetraacetate trisodium 0.03,◯
same,"Determination (skin reaction, continuous application test)",skin [2]; cream,⊚ (mean score of 0)
same,"Determination (skin reaction, continuous application test)",skin [2]; lotion,⊚ (mean score of 0)
same,Appearance (visual determination),[3]; [8],◯
same,Remaining ratio (%),[3]; [8],99.3%
same,Appearance (visual determination),[3]; [9],◯
same,Remaining ratio (%),[3]; [9],99.0%
same,Appearance (visual determination),[3]; [10],◯
same,Remaining ratio (%),[3]; [10],99.1%
same,Appearance (visual determination),[3]; drug salicylic acid 0.1 wt %,◯
same,Remaining ratio (%),[3]; drug salicylic acid 0.1 wt %,99.6%
same,Ultraviolet prevention effect,"sunburn; cream, blend amount 0.0005 wt %",Δ (prominently effective or effective for 30% or more to less than 50% of the subjects)
same,Ultraviolet prevention effect,"sunburn; cream, blend amount 0.001 wt %",◯ (prominently effective or effective for 50% or more to less than 80% of the subjects)
same,Ultraviolet prevention effect,"sunburn; cream, blend amount 0.01 wt %",⊚ (prominently effective or effective for 80% or more of the subjects)
same,Ultraviolet prevention effect,"sunburn; cream, blend amount 1 wt %",⊚ (prominently effective or effective for 80% or more of the subjects)
same,Ultraviolet prevention effect,"sunburn; cream, blend amount 5 wt %",⊚ (prominently effective or effective for 80% or more of the subjects)
same,Ultraviolet prevention effect,"sunburn; cream, blend amount 10 wt %",⊚ (prominently effective or effective for 80% or more of the subjects)
same,Ultraviolet prevention effect,"sunburn; cream, blend amount 20 wt %",⊚ (prominently effective or effective for 80% or more of the subjects)
same,Ultraviolet prevention effect,"sunburn; lotion, blend amount 0.0005 wt %",Δ (prominently effective or effective for 30% or more to less than 50% of the subjects)
same,Ultraviolet prevention effect,"sunburn; lotion, blend amount 0.001 wt %",◯ (prominently effective or effective for 50% or more to less than 80% of the subjects)
same,Ultraviolet prevention effect,"sunburn; lotion, blend amount 0.01 wt %",⊚ (prominently effective or effective for 80% or more of the subjects)
same,Ultraviolet prevention effect,"sunburn; lotion, blend amount 1 wt %",⊚ (prominently effective or effective for 80% or more of the subjects)
same,Ultraviolet prevention effect,"sunburn; lotion, blend amount 5 wt %",⊚ (prominently effective or effective for 80% or more of the subjects)
same,Ultraviolet prevention effect,"sunburn; lotion, blend amount 10 wt %",⊚ (prominently effective or effective for 80% or more of the subjects)
same,Ultraviolet prevention effect,"sunburn; lotion, blend amount 20 wt %",⊚ (prominently effective or effective for 80% or more of the subjects)
same,"Determination (skin reaction, patch test)",skin [4]; cream,⊚ (mean score of 0)
same,"Determination (skin reaction, patch test)",skin [4]; lotion,⊚ (mean score of 0)
same,Remaining ratio,[5],⊚ (95% or more of those before daylight exposure)
same,Change of area under ultraviolet spectrum,[5]; 290 nm to 400 nm,⊚ (95% or more of those before daylight exposure)
same,Color change,[6],no
same,Appearance (visual determination),[7]; [11],◯
same,Δ E,[7]; [11],1.22
same,Appearance (visual determination),[7]; [12],◯
same,Δ E,[7]; [12],0.45
same,Appearance (visual determination),[7]; [13],◯
same,Δ E,[7]; [13],0.53
same,Appearance (visual determination),[7]; [14],◯
same,Δ E,[7]; [14],0.55
same,Appearance (visual determination),[7]; [15],◯
same,Δ E,[7]; [15],1.11
same,Appearance (visual determination),[7]; [16],◯
same,Δ E,[7]; [16],0.63
same,Appearance (visual determination),[7]; [17],◯
same,Δ E,[7]; [17],0.38
